The target of the assay is T1, recombinant CZP (cruzain) (Trypanosoma cruzi, UniProt P25779).
T1 construct: gift of Allison Doak and Prof; Brian Shoichet (University of California San Francisco)
Kind of assay: CZP inhibition, cleavage of fluorogenic substrate Z-FR-AMC (initial screening and IC50). Format: biochemical, T. cruzi. On the procedure: The previously reported methods were followed to evaluate the in vitro activity against CZP [91, 92, 93, 94]. Allison Doak and Prof. Brian Shoichet (University of California San Francisco, San Francisco, CA, USA) generously provided recombinant CZP (cruzain). The enzyme activity was measured by monitoring the cleavage of the fluorogenic substrate Z-FR-AMC at 25 °C. Unless stated otherwise, assays were performed using 2.5 μ M of substrate ( KM = 0.5 ± 0.1 μ M) and 0.5 nM CZP in a 0.1 M sodium acetate buffer, pH 5.5, 0.01% Triton X-100 and 2 mM β -mercaptoethanol. DMSO and 1 μ M E-64 were employed as negative and positive controls, respectively, in all assays. Fluorescence was monitored at 340/440 nm (excitation/emission) over time in a Biotec 87 Synergy 2 fluorimeter at the Multiuser Laboratory of the Biochemistry and Immunology Department (UFMG, Belo Horizonte, Brazil). All assays were performed in triplicate in two independent experiments.
Initial screening. For the initial screening against CZP, compounds at 100 μ M were tested against CZP with and without a 10min pre-incubation with the enzyme. The fluorescence was monitored for 10 min at 5 s intervals. DMSO and E-64 were employed in all assays as negative and positive controls, respectively. Initial velocities of the negative control (DMSO) were compared to those in the presence of compounds to calculate the percentage of inhibition. The reported values correspond to the mean and standard error of the mean (SEM) of experiments performed in triplicate in two independent experiments.
IC50 determination. Compounds in at least eight distinct compound concentrations (400 μ M, 100 μ M, 25 μ M, 6.25 μ M, 1.5 μ M, 0.4 μ M, 0.1 μ M and 0.025 μ M) were incubated with CZP for 10 min, and once the substrate was added, the fluorescence was monitored for 10 min at 5 s intervals. IC50 curves were obtained from a non-linear fit of the inhibition values versus the logarithmic concentration of the compounds. The reported IC50 values are the mean and SEM of two independent measurements performed in triplicate.

The mark [1] stands for this setting: 100 μM, 10 min pre-incubation of the enzyme with compound, read-out: % CZP inh.

The values below come from publication PMC11396839, “Structure-Aided Computational Design of Triazole-Based Targeted Covalent Inhibitors of Cruzipain” (Molecules, 2024).

Structures are written as SMILES. Like-named read-outs stand apart in the source and are kept apart here.

T1 sequence (P25779 123-337): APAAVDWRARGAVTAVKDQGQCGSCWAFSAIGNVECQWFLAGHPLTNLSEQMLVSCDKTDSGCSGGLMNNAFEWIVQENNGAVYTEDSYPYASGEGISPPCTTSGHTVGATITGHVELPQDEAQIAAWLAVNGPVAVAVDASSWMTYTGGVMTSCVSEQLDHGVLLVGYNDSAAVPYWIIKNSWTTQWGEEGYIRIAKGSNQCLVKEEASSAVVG

For `O=CC(CCC(=O)O)n1cc(C(NCc2ccc3c(c2)OCO3)C2CCCCC2)nn1` (stereo not shown) [Ald-3], the “CZP inhibitory activity in words” value is reported as “not active at all”. Also, the inhibition at 100 µM under setting [1] was 8 ± 2%.

Turning to `CSCCC(C=O)n1cc(C(NCc2ccc3c(c2)OCO3)C2CCCCC2)nn1` (stereo not shown) [Ald-7], the inhibition at 100 µM under setting [1] was found to be 42 ± 7%.

Take `O=CC(c1ccccc1)n1cc(C(NCc2ccc3c(c2)OCO3)C2CCCCC2)nn1` (stereo not shown) [Ald-9]: the inhibition at 100 µM under setting [1] is 11 ± 3%.

As to `CC(O)C(C=O)n1cc(C(NCc2ccc3c(c2)OCO3)C2CCCCC2)nn1` (stereo not shown) [Ald-11], under setting [1], the inhibition at 100 µM worked out at 58 ± 4%.

On to `O=CC(Cc1ccccc1)n1cc(C(C2CCCCC2)N2CCc3ccccc3C2)nn1` (stereo not shown) [Ald-16], for which, under setting [1], the inhibition at 100 µM is 34 ± 5%.

For `O=CC(Cc1c[nH]cn1)n1cc(C(C2CCCCC2)N2CCc3ccccc3C2)nn1` (stereo not shown) [Ald-17], the inhibition at 100 µM under setting [1] was found to be 38 ± 6%.

For the molecule `CSCCC(C=O)n1cc(C(C2CCCCC2)N2CCc3ccccc3C2)nn1` (stereo not shown) [Ald-18], the inhibition at 100 µM under setting [1] came out at 16 ± 4%.

With `O=CC(c1ccccc1)n1cc(C(C2CCCCC2)N2CCc3ccccc3C2)nn1` (stereo not shown) [Ald-19], the inhibition at 100 µM under setting [1] is 3 ± 10%.

In the case of `CC(O)C(C=O)n1cc(C(C2CCCCC2)N2CCc3ccccc3C2)nn1` (stereo not shown) [Ald-21], the inhibition at 100 µM under setting [1] was 8 ± 7%.

`O=CC(Cc1c[nH]c2ccccc12)n1cc(C(C2CCCCC2)N2CCc3ccccc3C2)nn1` (stereo not shown) [Ald-22]: under setting [1], the inhibition at 100 µM is 55 ± 9%.

In the case of `COC(=O)[C@H](Cc1ccccc1)n1cc(C(NCc2ccc3c(c2)OCO3)C2CCCCC2)nn1` (stereo partly shown) [Es-1], under setting [1], the inhibition at 100 µM amounted to 15 ± 2%.

As for `COC(=O)C(C(C)C)n1cc(C(NCc2ccc3c(c2)OCO3)C2CCCCC2)nn1` (stereo not shown) [Es-2], under setting [1], the inhibition at 100 µM is 9 ± 7%.

Consider `COC(=O)C(CCC(=O)O)n1cc(C(NCc2ccc3c(c2)OCO3)C2CCCCC2)nn1` (stereo not shown) [Es-3], for which the inhibition at 100 µM under setting [1] is 8 ± 7%.

Regarding `COC(=O)C(Cc1c[nH]cn1)n1cc(C(NCc2ccc3c(c2)OCO3)C2CCCCC2)nn1` (stereo not shown) [Es-4], the inhibition at 100 µM under setting [1] turned out to be 5 ± 4%.

Consider `COC(=O)C(CC(C)C)n1cc(C(NCc2ccc3c(c2)OCO3)C2CCCCC2)nn1` (stereo not shown) [Es-5], for which the inhibition at 100 µM under setting [1] is 5 ± 2%.

`COC(=O)[C@H](CCCCN)n1cc(C(NCc2ccc3c(c2)OCO3)C2CCCCC2)nn1` (stereo partly shown) [Es-6]: the inhibition at 100 µM under setting [1] was found to be 9 ± 2%.

`COC(=O)C(C)n1cc(C(NCc2ccc3c(c2)OCO3)C2CCCCC2)nn1` (stereo not shown) [Es-8]: the inhibition at 100 µM under setting [1] worked out at 8 ± 7%.

Consider `COC(=O)C(c1ccccc1)n1cc(C(NCc2ccc3c(c2)OCO3)C2CCCCC2)nn1` (stereo not shown) [Es-9], for which the inhibition at 100 µM under setting [1] was determined as 6 ± 5%.

Turning to `COC(=O)C(CO)n1cc(C(NCc2ccc3c(c2)OCO3)C2CCCCC2)nn1` (stereo not shown) [Es-10], the inhibition at 100 µM by setting is: under setting [1], at least 47%; (read-out: % CZP inhib. wo/inc., 100 μM, without prior incubation) 43 ± 4%.

As to `COC(=O)C(C(C)O)n1cc(C(NCc2ccc3c(c2)OCO3)C2CCCCC2)nn1` (stereo not shown) [Es-11], the inhibition at 100 µM under setting [1] came to 0%.

`COC(=O)C(Cc1c[nH]c2ccccc12)n1cc(C(NCc2ccc3c(c2)OCO3)C2CCCCC2)nn1` (stereo not shown) [Es-12]: the inhibition at 100 µM under setting [1] was 15 ± 2%.

For `COC(=O)C(Cc1ccc(O)cc1)n1cc(C(NCc2ccc3c(c2)OCO3)C2CCCCC2)nn1` (stereo not shown) [Es-13], the inhibition at 100 µM under setting [1] amounted to 8 ± 1%.

As for `CCOC(=O)C(Cc1ccccc1)n1cc(C(C2CCCCC2)N2CCc3ccccc3C2)nn1` (stereo not shown) [Es-16], the inhibition at 100 µM under setting [1] worked out at 13 ± 6%.

Turning to `COC(=O)C(Cc1c[nH]cn1)n1cc(C(C2CCCCC2)N2CCc3ccccc3C2)nn1` (stereo not shown) [Es-17], the inhibition at 100 µM under setting [1] stood at 6 ± 3%.

Regarding `CCOC(=O)C(CCSC)n1cc(C(C2CCCCC2)N2CCc3ccccc3C2)nn1` (stereo not shown) [Es-18], the inhibition at 100 µM under setting [1] stood at 0%.

With `COC(=O)C(c1ccccc1)n1cc(C(C2CCCCC2)N2CCc3ccccc3C2)nn1` (stereo not shown) [Es-19], the inhibition at 100 µM under setting [1] stood at 0%.

For the molecule `COC(=O)C(CO)n1cc(C(C2CCCCC2)N2CCc3ccccc3C2)nn1` (stereo not shown) [Es-20], the inhibition at 100 µM under setting [1] was 5 ± 4%.

As for `COC(=O)C(C(C)O)n1cc(C(C2CCCCC2)N2CCc3ccccc3C2)nn1` (stereo not shown) [Es-21], the inhibition at 100 µM under setting [1] was determined as 0%.

On to `COC(=O)C(Cc1c[nH]c2ccccc12)n1cc(C(C2CCCCC2)N2CCc3ccccc3C2)nn1` (stereo not shown) [Es-22], for which, under setting [1], the inhibition at 100 µM stood at 1 ± 6%.
